Tests used:
[1] = test system: elastin; test: Expression of extracellular matrix component by RT-PCR in NIH3T3 cells; format: cell-based, mouse; settings: 10 μM, 50 μM or 1000 μM peptide, 24 hours, FIG. 2, FIG. 3C
Description: (§1) In this example, the aim was to confirm the effect of the peptide according to an example on improving endogenous skin aging, including improvement of wrinkles and enhancement of elasticity, etc., by evaluating the expression levels of collagen type 1 (CoI1a1), fibronectin, elastin, and hyaluronic acid, which are known components of the dermis.
(§2) Specifically, NIH3T3 cells were seeded in a 6-well plate at a density of 3×10^5 cells/well and cultured for 24 hours. Next, the cells were washed once with serum-free DMEM media, and 10 μM, 50 μM or 1000 μM of a peptide consisting of an amino acid sequence of SEQ ID NO: 1 was dispensed into 1 mL of the serum-free media, and cultured in a CO2 incubator at 37° C. for 24 hours. Next, the culture was washed twice with PBS, and RNA was isolated from the culture using easy blue (iNtRON, Cat. No.: 17061, Korea). Next, using an RT kit (Enzynomics, Cat. NO.: RT200, Korea), the isolated RNA was reverse transcribed to synthesize the respective cDNA. Next, using the synthesized 1 μg cDNA, primers for CoI1a1, fibronectin, or elastin, and a PCR kit (Enzynomics, Cat. No.: P581T, Korea), polymerase chain reaction (PCR) was performed. Meanwhile, in this example, an untreated group was used as a control group, and a group to which IGF was added was used as a positive control group, the nucleotide sequences of the primers used in this example are shown in Table 2 below.

[2] = test system: collagen type 1 (CoI1a1); test: as above; format: cell-based, mouse; settings: 10 μM, 50 μM or 1000 μM peptide, 24 hours, FIG. 2, FIG. 3A
Description: as §1, §2

[3] = test system: fibronectin; test: as above; format: cell-based, mouse; settings: 10 μM, 50 μM or 1000 μM peptide, 24 hours, FIG. 2, FIG. 3B
Description: as §1, §2

[4] = test system: HaCaT cells; test: Reactive oxygen species increased by ultraviolet irradiation, DCFH-DA flow cytometry; format: cell-based; settings: 50 μM or 1000 μM peptide, 15 mJ/cm^2 ultraviolet rays, 24 hours, FACS, FIG. 6
Description: In this example, the aim was to confirm the effect of the peptide according to an embodiment on the antioxidant effect in damaged skin, by evaluating the change in the level of reactive oxygen species in skin cells increased by ultraviolet irradiation.
Specifically, HaCaT cells were seeded in a 6-well plate at a density of 5×10^5 cells/well and cultured for 24 hours. Next, the cells were washed once with serum-free DMEM media, and 50 μM or 1000 μM of a peptide consisting of an amino acid sequence of SEQ ID NO: 1 was dispensed into 1 mL of the serum-free media, and cultured in a CO2 incubator at 37° C. for […]. Next, the above culture was transferred to an e-tube, mixed with 1 ml of PBS, and dispensed into a well plate. Next, using a UV irradiator (VILBER LOURMAT, Cat No.: 3102-BSU, France), 15 mJ/cm^2 ultraviolet rays were irradiated to HaCaT cells. Next, the PBS in the well plate was removed, 900 μL of the culture medium in which the peptides were dispensed was added, and the plate was cultured in a CO2 incubator at 37° C. for 24 hours. Next, the culture was treated with DCFH-DA (2′,7′-dichlorofluorescin diacetate), wrapped in foil, and cultured in a CO2 incubator at 37° C. for 30 minutes. […] After washing the centrifuged cells with PBS, fluorescence values were measured through flow cytometry (FACS, BD, USA). […]

[5] = test system: NIH3T3 cells; test: Proliferation of skin cells, MTT (change in cell survival rate); format: cell-based, mouse; settings: 50 μM or 100 μM peptide, serum-free media, 72 hours, MTT absorbance 540 nm, FIG. 1
Description: In this example, the aim was to confirm the effect of a peptide according to an example on proliferation of skin cells, by evaluating changes in survival rate of NIH3T3 cells, which are mouse fibroblasts.
Specifically, NIH3T3 cells were seeded in a […] at a density of 1×10^4 cells/well and cultured for 24 hours. Next, the cells were washed once with serum-free DMEM media, and 50 μM or 100 μM of a peptide consisting of an amino acid sequence of SEQ ID NO: 1 was dispensed into 200 μL of the serum-free media, and cultured in a CO2 incubator at 37° C. for 72 hours. Next, the culture was washed twice with PBS, and MTT solution was dispensed into each well at a concentration of 0.5 mg/ml. Next, it was shaded from light and cultured in a CO2 incubator at 37° C. for 4 hours, and the absorbance at 540 nm was measured using a microplate reader (Molecular Devices, USA).

[6] = test system: sirtuin-1 (SIRT-1); test: Expression of skin barrier factor by RT-PCR in HaCaT cells; format: cell-based; settings: 10 μM, 50 μM or 1000 μM peptide, 24 hours, FIG. 4, FIG. 5A
Description: (§3) In this example, the aim was to confirm the effect of the peptides according to an example on strengthening the skin barrier, by evaluating the expression levels of sirtuin-1 (SIRT-1) or aquaporin-3 (AQP3).
(§4) Specifically, HaCaT cells were seeded in a 6-well plate at a density of 3×10^5 cells/well and cultured for 24 hours. Next, the cells were washed once with serum-free DMEM media, and 10 μM, 50 μM or 1000 μM of the peptide consisting of the amino acid sequence of SEQ ID NO: 1 was dispensed into 1 mL of the serum-free media, and cultured in a CO2 incubator at 37° C. for 24 hours. Next, the culture was washed twice with PBS, and RNA was isolated from the culture using easy blue (iNtRON, Cat. No.: 17061, Korea). Next, using an RT kit (Enzynomics, Cat. NO.: RT200, Korea), the isolated RNA was reverse transcribed to synthesize the respective cDNA. Next, using the synthesized 1 μg cDNA, primers for SIRT-1 or AQP3, and a PCR kit (Enzynomics, Cat. No.: P581T, Korea), polymerase chain reaction (PCR) was performed. Meanwhile, in this example, an untreated group was used as a control group, and a group to which EGF was added was used as a positive control group, the nucleotide sequences of the primers used in this example are shown in Table 3 below.

[7] = test system: aquaporin-3 (AQP3); test: as above; format: cell-based; settings: 10 μM, 50 μM or 1000 μM peptide, 24 hours, FIG. 4, FIG. 5B
Description: as §3, §4

TNRTEVEG [SEQ ID NO: 1]
expression of elastin [1]: increased
expression of CoI1a1 [2]: increased
expression of fibronectin [3]: increased
level of reactive oxygen species in keratinocytes increased by ultraviolet irradiation [4]: reduced
proliferation of fibroblasts [5]: promoted
expression of SIRT-1 [6]: increased
expression of AQP3 [7]: increased

Source: patent US20260200977A1, “PEPTIDE HAVING ACTIVITY OF IMPROVING STATE OF SKIN, AND USE THEREOF” (CAREGEN CO., LTD., priority 2022, published 2026)
